Data taken from patent US20160313301A1, “METHOD FOR PREDICTING ANTITUMOR EFFICACY OF HSP90 INHIBITOR IN CANCER TREATMENT” (NIPPON KAYAKU KABUSHIKI KAISHA, priority 2013, published 2016).
“Also recorded” adds a separate entry of the source.

Experiments:
Format in all cases: in vivo
[1] = system: human ovarian cancer cells OV-90; assay: Anti-tumor test in mice transplanted subcutaneously with tumor (OV-90); details: OV-90 s.c. in mice
Method: (§1) Human ovarian cancer cell lines OC-10-JCK, OC-11-JCK, and TOGY-18, and a human breast cancer cell line MC-19-JCK were obtained from Central Institute for Experimental Animals. Cryopreserved tumor pieces were thawed, and then OC-10-JCK, OC-11-JCK, and MC-19-JCK were transplanted subcutaneously to SCID mice, while TOGY-18 was transplanted subcutaneously to nude mice. After the tumors were grown, the tumors were removed and cut into tumor pieces. The tumor pieces were transplanted subcutaneously to SCID mice or nude mice with trocars. The tumors were maintained by repeated transplantation in the same manner as described above to prepare tumors to be transplanted. Human ovarian cancer cell lines ES-2, SK-OV-3, OV-90, and TOV-21G, and a human lung cancer cell line NCI-H1975 were obtained from American Type Culture Collection (ATCC). The SK-OV-3 and NCI-H1975 cell lines were grown in recommended culture media, of which about 1×10^7 cells were suspended into HBSS and then injected subcutaneously to SCID mice. After the cells formed tumors, the tumors were removed and cut into tumor pieces. The tumor pieces were transplanted subcutaneously to SCID mice with trocars. The tumors were maintained by repeated transplantation in the same manner as described above to prepare tumors to be transplanted. […]

[2] = system: human breast cancer cells MC-19-JCK; assay: Anti-tumor test in mice transplanted subcutaneously with tumor (MC-19-JCK); details: MC-19-JCK s.c. in mice; administered once at 40 mg/kg
Method: as §1

[3] = system: human ovarian cancer cells SHIN-3; assay: Anti-tumor test in mice transplanted subcutaneously with tumor (SHIN-3); details: SHIN-3 s.c. in mice
Method: as §1

[4] = system: human ovarian cancer cells OVCAR-3; assay: Anti-tumor test in mice transplanted subcutaneously with tumor (OVCAR-3)
[5] = system: human ovarian cancer cells SK-OV-3; assay: Anti-tumor test in mice transplanted subcutaneously with tumor (SK-OV-3); details: SK-OV-3 s.c. in mice
Method: as §1

[6] = system: human ovarian cancer cell line OC-10-JCK; assay: Anti-tumor test in mice transplanted subcutaneously with tumor (OC-10-JCK); details: OC-10-JCK s.c. in mice; 40 mg/kg tail vein three times at 4 day intervals
Method: as §1

[7] = system: human ovarian cancer cells 2008; assay: Anti-tumor test in mice transplanted subcutaneously with tumor (2008); details: 2008 s.c. in mice
Method: as §1

[8] = system: human ovarian cancer cells OC-11-JCK/CDDP; assay: Anti-tumor test in mice transplanted subcutaneously with tumor (OC-11-JCK/CDDP); details: OC-11-JCK/CDDP s.c. in mice; 40 mg/kg tail vein three times at 4 day intervals
Method: as §1

[9] = system: human ovarian cancer cells OC-11-JCK; assay: Anti-tumor test in mice transplanted subcutaneously with tumor (OC-11-JCK); details: OC-11-JCK s.c. in mice; 40 mg/kg tail vein three times at 4 day intervals
Method: as §1

[10] = system: human ovarian cancer cells TOGY-18; assay: Anti-tumor test in mice transplanted subcutaneously with tumor (TOGY-18); details: TOGY-18 s.c. in mice; 40 mg/kg tail vein three times at 4 day intervals
Method: as §1

[11] = system: human ovarian cancer cells TOV-21G; assay: Anti-tumor test in mice transplanted subcutaneously with tumor (TOV-21G); details: TOV-21G s.c. in mice
Method: as §1

[12] = 40 mg/kg tail vein three times at 4 day intervals

Q: For `CC(C)c1cc(-c2n[nH]c(=O)n2-c2ccc(CN3CCN(C)CC3)cc2)c(O)cc1O` [A-1, 5-(2,4-dihydroxy-5-isopropyl-phenyl)-4-[4-(4-methyl-piperazin-1-ylmethyl)-phenyl]-2,4-dihydro-[1,2,4]triazol-3-one], which “anti-tumor effect (in words)” value [1] is on record?
A: relatively highly effective

Q: What about the “T/C % (lowest value from the beginning to the 21st day of administration)” value [1, 12] of the same compound?
A: 30.4%

Q: What about the “T/C % (lowest value from the beginning to the 21st day of administration)” value [2] of the same compound?
A: 5.2%

Q: And the “anti-tumor effect (in words)” value [3]?
A: hardly effective; also recorded: lowly effective

Q: And the “T/C % (lowest value from the beginning to the 21st day of administration)” value [3, 12]?
A: 78.1%

Q: What about the “T/C % (lowest value from the beginning to the 21st day of administration)” value ([4]; OVCAR-3 s.c. in NOD/SCID mice, 40 mg/kg tail vein three times at 4 day intervals) of the same compound?
A: 34.9%

Q: What about the “anti-tumor effect (in words)” value ([4]; OVCAR-3 s.c. in mice) of the same compound?
A: relatively highly effective

Q: And the “anti-tumor effect (in words)” value [5]?
A: relatively highly effective

Q: And the “T/C % (lowest value from the beginning to the 21st day of administration)” value [5, 12]?
A: 3.0%

Q: What about the “T/C % (lowest value from the beginning to the 21st day of administration)” value [6] of the same compound?
A: 50.2%

Q: What about the “anti-tumor effect (in words)” value [7] of the same compound?
A: lowly effective

Q: And the “T/C % (lowest value from the beginning to the 21st day of administration)” value [7, 12]?
A: 51.7%

Q: And the “T/C % (lowest value from the beginning to the 21st day of administration)” value [8]?
A: 46.4%

Q: And the “T/C % (lowest value from the beginning to the 21st day of administration)” value [9]?
A: 36.0%

Q: And the “T/C % (lowest value from the beginning to the 21st day of administration)” value [10]?
A: 45.2%

Q: What about the “anti-tumor effect (in words)” value [11] of the same compound?
A: relatively highly effective

Q: What about the “T/C % (lowest value from the beginning to the 21st day of administration)” value [11, 12] of the same compound?
A: 25.0%
